Experimental data: patent EP0558245A1, “Heterobicyclic compounds as antagogists of alpha-1 adrenergic and SHT1A receptors” (priority 1992, dated 1993)
Where a name gives a salt, the structure may show the parent alone. Read-outs that look alike come from different tables or passages of the source.

Tests used:
[1] = tested on: noradrenaline induced contraction of urethra; experiment: Effects on urethral contractions (noradrenaline-induced) in anaesthetized dogs; type: in vivo; conditions: for ED50: Canis lupus familiaris, iv, anaesthetized male beagle dogs, i.v. cumulative, active dose in inhibiting by 50% the noradrenaline induced contraction of urethra, read-out: Urethra ED50; for DBP/Urethra ratio: ratio between the active doses (selectivity index), * = non-selective: substantial effect on both urethra and DBP
Source text: (§1) In order to monitor systemic blood pressure (BP), a PE catheter was introduced into the aortic arch through the right common carotid artery.
(§2) A collateral of the left femoral vein was cannulated for infusion of anaesthetic, and the right femoral vein was cannulated for administration of drugs. For intrarterial (i.a.) injection of noradrenaline (NA), a PE catheter was introduced into the lower portion of abdominal aorta via the right external iliac artery. Through such procedure, NA was selectively distributed to the lower urinary tract. Via a midline laparotomy, the urinary bladder and proximal urethra were exposed. In order to prevent the filling of the bladder, the two ureters were cannulated and the urine led outside. In order to record the prostatic urethral pressure, a Mikro-tip catheter (6 F) was introduced into the bladder via the external urethral meatus, and withdrawn until the pressure transducer was positioned in the prostatic urethra. A ligature was secured between the neck of the bladder and urethra to isolate the response of the latter and avoid any interaction with the bladder. Another ligature was put around the Mikro-tip catheter at the external urethral meatus, to secure the catheter itself. After a stabilizing period following surgical procedure (30 min), in which arterial and prostatic urethral pressure were continuously monitored as basal values, i.a. administration of NA was made at intervals of 10 min. The dose of NA chosen was such to produce an increase of at least 100% in urethral pressure. The test compounds were administered i.v. in a cumulative manner with intervals of 15-20 min between administrations. I.a. injections of NA were repeated approximately 5 min. after every dosing of test compound. Dose response curves were constructed computing the percentage inhibition to the increase in urethral pressure (NA induced), and the percentage drop in blood pressure produced by the test compound.

[2] = Acute toxicity in mice after intraperitoneal and oral administration; conditions: mouse, in vivo, female albino Swiss mice, mortality recorded 7 days after administration
In short: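 Female albino Swiss mice (20-30 g) dosed i.p. or orally at four log-scaled doses in 0.5% Methocel (10 ml/kg), 4 mice/dose. Mortality recorded at 7 days; LD₅₀ with fiducial limits by Weil's method.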

diastolic blood pressure = experiment: Effects on blood pressure in anaesthetized dogs; type: in vivo; conditions: Canis lupus familiaris, iv; anaesthetized male beagle dogs, i.v. cumulative; active dose in lowering diastolic blood pressure by 25%; read-out: DBP ED25
Source text: as §1, §2

5HT1A receptors = target: T1, 5HT1A receptors (Rattus norvegicus, UniProt P19327); experiment: [3H]8-OH-DPAT binding (5HT1A receptors), rat hippocampus membranes; conditions: rat hippocampus crude membranes, [3H]8-OH-DPAT 1.0 nM, 25°C 30 min; read-out: Receptor Binding IC50 (nM) 5-HT1a
T1 construct: Rat hippocampi were homogenized; from tissue; host or cells: rat hippocampus membranes
T1 sequence (P19327 1-422): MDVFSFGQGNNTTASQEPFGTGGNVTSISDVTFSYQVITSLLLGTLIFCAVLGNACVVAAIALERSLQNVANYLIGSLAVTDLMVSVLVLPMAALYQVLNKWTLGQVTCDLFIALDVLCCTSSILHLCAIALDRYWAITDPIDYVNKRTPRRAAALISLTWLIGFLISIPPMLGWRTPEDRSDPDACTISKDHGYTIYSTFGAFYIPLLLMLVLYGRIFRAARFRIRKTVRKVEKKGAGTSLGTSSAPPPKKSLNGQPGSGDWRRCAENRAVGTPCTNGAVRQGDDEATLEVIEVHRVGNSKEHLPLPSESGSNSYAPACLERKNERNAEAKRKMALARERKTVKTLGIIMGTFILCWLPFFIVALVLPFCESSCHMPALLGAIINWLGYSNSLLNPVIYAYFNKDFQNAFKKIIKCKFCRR

rat bladder strips = experiment: K+-induced contractions of rat bladder strips; type: cell-based; conditions: 80 mM KCl, drug added 30 minutes before
Description: The whole bladder of the rat was removed and immediately placed in Krebs solution warmed at 37°C. […] Each strip was placed in a 10 ml organ bath and connected, under a constant load of 1 g, to an isometric strain gauge (DY-1 Basile, Comerio, Varese, Italy). […] After a 60 minutes equilibration period the strips were exposed to 80 mM KCl (final concentration). […] When the tonic contraction was stable, the strips were washed and 30 minutes later a new contraction was induced. After having recorded two or more reproducible responses, one concentration of the tested drugs was added to the bath and 30 minutes later a new contraction was induced. The experimental groups consisted of at least two preparations taken from different animals for each concentration of drug tested. The IC₅₀ values of inhibition of agonist-induced contractions were evaluated by linear regression analysis.

α₁ receptors = experiment: [3H]prazosin binding (α1 receptors), rat cerebral cortex membranes; conditions: rat cerebral cortex crude membranes, [3H]prazosin 0.35 nM, 25°C 30 min; read-out: Receptor Binding IC50 (nM) α1
[3] = ip, intraperitoneal, read-out: Acute Toxicity in Mice LD50 (mg/kg) i.p.
[4] = oral, read-out: Acute Toxicity in Mice LD50 (mg/kg) p.o.
[5] = phasic contraction, read-out: K+ Stimulation of Rat Bladder IC50 (μM) Contractions Phasic
[6] = tonic contraction, read-out: K+ Stimulation of Rat Bladder IC50 (μM) Contractions Tonic

Compound | ED50 [1] [mg/kg] | DBP/Urethra ratio [1] | LD50 at 168 h [2, 3] [mg/kg] | LD50 at 168 h [2, 4] [mg/kg] | ED25 (diastolic blood pressure) [mg/kg] | IC50 (5HT1A receptors) [nM] | IC50 (rat bladder strips; [5]) [µM] | IC50 (rat bladder strips; [6]) [µM] | IC50 (α₁ receptors) [nM]
COc1ccccc1N1CCN(CCNC(=O)c2cccc3c(=O)c(C)c(-c4ccccc4)oc23)CC1 [Example 13, 8-{2-[4-(2-methoxyphenyl)-1-piperazinyl]-ethylcarbamoyl}-3-methyl-4-oxo-2-phenyl-4H-1-benzopyran monohydrochloride hemihydrate] | 0.016 | 13.4 | > 1000 | > 3000 | 0.215 | 229 | 10 | 10 | 68
COc1ccccc1N1CCN(CCCS(=O)(=O)c2cccc3c(=O)c(C)c(-c4ccccc4)oc23)CC1.Cl [Example 47, 8-{3-[4-(2-methoxyphenyl)-1-piperazinyl]-propylsulphonyl}-3-methyl-4-oxo-2-phenyl-4H-1-benzopyran hydrochloride] | 0.035 | 15.1 | 330 | 1050 | 0.53 | 23 | 2.7 | 5.2 | 36
COc1ccccc1N1CCN(CCCNC(=O)c2cccc3c(=O)c(C)c(-c4ccccc4)oc23)CC1 [Example 11, 8-{3-[4-(2-methoxyphenyl)-1-piperazinyl]-propylcarbamoyl}-3-methyl-4-oxo-2-phenyl-4H-1-benzopyran dihydrochloride hemihydrate] | 0.0014 | 278.6 | 247 | 297 | 0.39 | 9 | 2.9 | 3 | 29
COc1ccccc1N1CCN(CC(O)c2cccc3c(=O)c(C)c(-c4ccccc4)oc23)CC1.Cl (stereo not drawn) [Example 17, 8-{1-hydroxy-2-[4-(2-methoxyphenyl)-1-piperazinyl]-ethyl}-3-methyl-4-oxo-2-phenyl-4H-1-benzopyran hydrochloride] | 0.01 | 0.6* | 299 | 608 | 0.0062 | 910 | 8.8 | 3.8 | 59
COc1ccccc1N1CCN(CCCOc2cccc3c(=O)c(C)c(-c4ccccc4)oc23)CC1.Cl.Cl [Example 40, 8-{3-[4-(2-methoxyphenyl)-1-piperazinyl]-propoxy}-3-methyl-4-oxo-2-phenyl-4H-1-benzopyran dihydrochloride] | 0.011 | 13.8 | 140 | 349 | 0.152 | 83 | 0.5 | 0.9 | 75
COc1ccccc1N1CCN(CCCCCOc2cccc3c(=O)c(C)c(-c4ccccc4)oc23)CC1.Cl [Example 42, 8-{5-[4-(2-methoxyphenyl)-1-piperazinyl]-pentyloxy}-3-methyl-4-oxo-2-phenyl-4H-1-benzopyran hydrochloride] | 0.031 | 13.0 | 459 | 2160 | 0.404 | 39 | 10 | 10 | 111
COc1ccccc1N1CCN(CCOCc2cccc3c(=O)c(C)c(-c4ccccc4)oc23)CC1.Cl.Cl [Example 27, 8-{2-[4-(2-methoxyphenyl)-1-piperazinyl]-ethoxymethyl}-3-methyl-4-oxo-2-phenyl-4H-1-benzopyran dihydrochloride] | 0.0032 | 3.1* | 399 | > 3000 | 0.0098 | 124 | 1 | 0.8 | 23
